Results reported in patent US10772858B2, “Benzhydrol derivatives for the management of conditions related to hypoxia inducible factors” (GEORGIA STATE UNIVERSITY RESEARCH FOUNDATION, priority 2015, dated 2020).

Experiments:
LN229 cells = assay: Toxicity to LN229 cells in the presence of galactose; format: cell-based, human
Text: To be metabolized, galactose has to be converted into glucose in an energy consuming process that cannot be balanced by glycolytic metabolism. […] KCN1 is toxic to LN229 cells in the presence of galactose. […] Thus, in certain embodiments, the disclosure contemplates administering compounds disclosed herein in combination with a restricted or low glucose diet optionally in combination with galactose.

[1] = molecular target: mitochondrial Complex I (NADH:ubiquinone oxidoreductase); assay: MitoCheck Complex I activity assay (Cayman Chemicals #700930); format: biochemical
Text: Complex I (NADH:ubiquinone oxidoreductase or NADH dehydrogenase (ubiquinone)) is a complex of enzymes of the respiratory chains that catalyzes the transfer of electrons from NADH to coenzyme Q10 (CoQ10) located in the inner mitochondrial membrane. […] Cancer Medicine, 2013, 2(5): 611-624. […] Interference with mitochondrial function to reduce hypoxia-induced HIF-1 activity in tumors is indicated as a therapeutic approach to overcome chemo- and radiotherapy resistance of hypoxic tumors. Helbig et al. report BAY 87-2243 improves local tumor control after fractionated irradiation in a schedule-dependent manner in head and neck human xenografts. Radiation Oncology 2014, 9:207. Santidrian et al. report mitochondrial complex I activity and NAD+/NADH balance regulate breast cancer progression. J Clin Invest, 2013, 123(3):1068-81. See also Ellinghaus et al., Cancer Med, 2013, 2(5):611-624. Chang et al., Clin Cancer Res, 2015, 21(2):335-46; Fulda et al., Antioxid Redox Signal, 2011, 15:2937-2949; Wenner, J Cell Physiol, 2012, 227:450-456; Fulda et al., Nat Rev Drug Discov, 2010, 9:447-464.
It has been discovered that certain HIF inhibitors disclosed herein are also mitochondrial inhibitors. […] KCN1 induced acidification of media may be due to the consequence of its mitochondrial inhibiting activity. […]

cell culture media = assay: Acidification of cell culture media (lactate production); format: cell-based; settings: due to increased lactate production
Text: It has been discovered that certain HIF inhibitors disclosed herein are also mitochondrial inhibitors. […] KCN1 induced acidification of media may be due to the consequence of its mitochondrial inhibiting activity. Inhibiting the mitochondrial complex I interferes with the normal functions of the electron transport chain. This in effect can damage DNA and specific components of the mitochondria which leads to cell death through the generation of reactive oxygen species.

mitochondrial complex I = settings: cited from earlier work
H460 xenograft = H460 xenograft model; cited from earlier work
HIF-1α = settings: cited from earlier work
[2] = system: LN229HRE-luc/lacZ cells (VEGF HRE, HIF-1 target); assay: Inhibition of hypoxia-inducible gene expression driven by HRE-reporter construct (firefly luciferase) in glioma cells; format: cell-based; settings: Homo sapiens, Glioma cell; firefly luciferase activity in LN229HRE-luc/LacZ cells, 1 hour pretreatment under normoxia, then hypoxia (1% O2); from dose-response curves
Experimental: Inhibition of Hypoxia-Inducible Gene Expression Driven by Exogenous HRE-Reporter Constructs in Glioma Cells
LN229HRE-luc/lacZ cells were generated by stably transfecting human LN229 glioma cells with a bidirectional reporter construct (pBIGL-V6R) in which the firefly luciferase and LacZ reporter genes are under the control of 6 head to tail tandem copies of the VEGF HRE (hypoxia-responsive element—endogenous HIF-1 target gene) in rightward orientation (clone LN229V6R#18; Hygro selection […]) as reported in Yin et al. Clinical Cancer Research, 2012, 1-11.
Cells were pretreated with different doses of test compounds or 1% DMSO (final concentration in media) vehicle control for 1 hour under normoxia (21% O2); then incubation continued under normoxia or hypoxia (1% O2) using a hypoxia incubator (Thermo Forma model 3130). Firefly luciferase activities in lysates of LN229HRE-luc/LacZ cells were measured with a Dual-Luciferase Reporter Assay System (Promega) in a 20/20 n Luminometer (Promega). The IC50 (μM) value for each individual compound was established from the dose-response curves.

| SMILES | IC50 [2] | further results |
| --- | --- | --- |
| COc1ccc(S(=O)(=O)N(Cc2ccc3c(c2)C=CC(C)(C)O3)c2ccccc2)cc1OC [KCN1] |  | toxicity to LN229 cells (LN229 cells): toxic; IC50 [1]: ~15000 nM; acidification of cell culture media (cell culture media): strongly acidifies cell culture media |
| Cc1cc(-c2nc(-c3ccc(OC(F)(F)F)cc3)no2)nn1Cc1ccnc(N2CCN(C3CC3)CC2)c1 [BAY 87-2243] |  | mitochondrial complex I activity inhibition (mitochondrial complex I): inhibits mitochondrial complex I activity; antitumor activity in vivo (H460 xenograft): Antitumor activity of BAY 87-2243 in vivo was demonstrated; HIF-1α inhibition (HIF-1α): inhibits HIF-1α |
| COc1ccc(C(O)c2ccc(COC3CCN(C(=O)OC(C)(C)C)CC3)cc2)cc1OC (stereo not shown) [3o] | 890 nM |  |
| COc1ccc(C(O)c2cccc(COC3CCN(C(=O)OC(C)(C)C)CC3)c2)cc1OC (stereo not shown) [6b, Tert-butyl 4-((3-((3,4-dimethoxyphenyl)(hydroxy)methyl)benzyl)oxy)piperidine-1-carboxylate] | 200 nM |  |
| CCCCOCc1cccc(C(O)c2cccc(OCOC)c2)c1 (stereo not shown) [9c] | > 5000 nM |  |
| COc1cc(C(O)c2ccc(OCC3CCN(C(=O)OC(C)(C)C)CC3)cc2C)cc(OC)c1OC (stereo not shown) [35f] | 270 nM |  |
| COc1ccc(C(O)c2ccc(COC3CCOC3)cc2)cc1OC (stereo not shown) [3c] | 3400 nM |  |
| CCCOCc1ccc(C(O)c2ccc(OCOC)cc2)cc1 (stereo not shown) [3r] | > 5000 nM |  |
| COc1ccc(C(O)c2ccc3c(n2)C=CC(C)(C)O3)cc1OC (stereo not shown) [26d] | 2250 nM |  |
| CCCCOc1ccc(C(O)c2ccc(OC)cc2OC)nc1 (stereo not shown) [15b] | > 5000 nM |  |
| COc1ccc(C(O)c2cccc(COc3ccccc3)c2)cc1OC (stereo not shown) [6a] | 1000 nM |  |
| COc1ccc(C(O)c2ccc3ccccc3c2)cc1OC (stereo not shown) [29c] | 1200 nM |  |
| CCCCOCc1cccc(C(O)c2ccc(OC)cc2OC)c1 (stereo not shown) [6h] | 480 nM |  |
| COc1ccc(C(O)c2ccc(OC(C)C)cn2)c(OC)c1 (stereo not shown) [15d] | > 5000 nM |  |
| COc1ccc(C(=O)c2ccc3c(c2)C=CC(C)(C)O3)cc1OC [36e] | > 5000 nM |  |
| CCCOCc1ccc(C(O)c2ccc(OC)c(OCc3ccccc3)c2)cc1 (stereo not shown) [3p] | > 5000 nM |  |
| CCOCc1ccc(C(O)c2ccc(OC)cc2)cc1 (stereo not shown) [3l] | > 5000 nM |  |
| COc1ccc(C(O)c2ccc(N3CCN(C)CC3)cc2)cc1OC (stereo not shown) [24d] | > 5000 nM |  |
